Source: ChEMBL document CHEMBL3804818 (J Med Chem, 2016)

Columns and labels:
Endoplasmin = Endoplasmin (Homo sapiens, UniProt P14625)
[1] = target: Heat shock protein HSP 90-alpha (Homo sapiens, UniProt P07900)

Chain of Endoplasmin (P14625 whole entry): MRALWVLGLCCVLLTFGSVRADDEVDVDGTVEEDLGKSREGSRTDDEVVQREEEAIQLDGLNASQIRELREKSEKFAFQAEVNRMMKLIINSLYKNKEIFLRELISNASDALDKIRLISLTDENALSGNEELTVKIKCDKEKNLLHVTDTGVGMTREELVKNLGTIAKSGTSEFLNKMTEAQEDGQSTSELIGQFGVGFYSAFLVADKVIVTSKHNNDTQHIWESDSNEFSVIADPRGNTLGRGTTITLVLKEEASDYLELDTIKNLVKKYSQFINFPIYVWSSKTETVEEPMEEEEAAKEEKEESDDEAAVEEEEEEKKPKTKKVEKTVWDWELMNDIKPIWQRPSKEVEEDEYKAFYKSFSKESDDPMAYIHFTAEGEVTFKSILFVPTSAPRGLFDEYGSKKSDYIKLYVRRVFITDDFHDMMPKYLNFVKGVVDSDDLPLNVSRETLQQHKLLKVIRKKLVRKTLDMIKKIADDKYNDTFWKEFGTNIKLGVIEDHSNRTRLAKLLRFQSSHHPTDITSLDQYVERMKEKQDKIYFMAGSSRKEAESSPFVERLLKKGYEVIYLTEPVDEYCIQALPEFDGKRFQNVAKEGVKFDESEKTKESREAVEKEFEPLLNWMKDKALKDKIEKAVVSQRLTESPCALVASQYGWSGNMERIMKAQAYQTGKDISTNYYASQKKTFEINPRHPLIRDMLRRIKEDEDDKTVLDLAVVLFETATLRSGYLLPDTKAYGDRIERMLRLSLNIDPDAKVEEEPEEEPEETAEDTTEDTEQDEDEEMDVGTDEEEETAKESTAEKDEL

Structure (SMILES)	Kd (Endoplasmin)	Kd [1]
CCc1ccccc1Cn1ccnc1CCc1c(Cl)c(O)cc(O)c1C(=O)OC	810 nM	38800 nM
COC(=O)c1c(O)cc(O)c(Cl)c1CCc1nccn1Cc1ccoc1	1500 nM	3770 nM
COC(=O)c1c(O)cc(O)c(Cl)c1CCc1nccn1Cc1ccsc1	2140 nM	6540 nM
COC(=O)c1c(O)cc(O)c(Cl)c1CCc1nccn1Cc1ccccc1C	3000 nM	68100 nM
COC(=O)c1c(O)cc(O)c(Cl)c1CCc1nccn1Cc1ccccc1OC(C)C	90 nM	240 nM
COC(=O)c1c(O)cc(O)c(Cl)c1CCc1nccn1Cc1cc(Cl)cs1	670 nM	1800 nM
COC(=O)c1c(O)cc(O)c(Cl)c1CCc1nccn1Cc1ccc(F)cc1	3200 nM	–
COC(=O)c1c(O)cc(O)c(Cl)c1CCc1nccn1Cc1ccc(C)cc1OC	2350 nM	72500 nM
COC(=O)c1c(O)cc(O)c(Cl)c1CCc1nccn1Cc1ccccc1Cl	1390 nM	8470 nM
COC(=O)c1c(O)cc(O)c(Cl)c1CCc1nccn1Cc1ccno1	400 nM	810 nM
COC(=O)c1c(O)cc(O)c(Cl)c1CCc1nccn1Cc1cccc(F)c1	1530 nM	9630 nM
COC(=O)c1c(O)cc(O)c(Cl)c1CCc1nccn1Cc1nccs1	2500 nM	16000 nM
COC(=O)c1c(O)cc(O)c(Cl)c1CCc1nccn1Cc1ccc(OC)cc1	6900 nM	> 150000 nM
COC(=O)c1c(O)cc(O)c(Cl)c1CCc1nccn1Cc1cncnc1	9180 nM	9920 nM
C=Cc1ccsc1Cn1ccnc1CCc1c(Cl)c(O)cc(O)c1C(=O)OC	750 nM	36700 nM
COC(=O)c1c(O)cc(O)c(Cl)c1CCc1nccn1Cc1ccccn1	4940 nM	9920 nM
COC(=O)c1c(O)cc(O)c(Cl)c1CCc1nccn1Cc1ccco1	550 nM	5910 nM
CCc1ccsc1Cn1ccnc1CCc1c(Cl)c(O)cc(O)c1C(=O)OC	720 nM	6940 nM
COC(=O)c1c(O)cc(O)c(Cl)c1CCc1nccn1Cc1ccccc1F	1360 nM	11400 nM
C=Cc1ccoc1Cn1ccnc1CCc1c(Cl)c(O)cc(O)c1C(=O)OC	2360 nM	–
COC(=O)c1c(O)cc(O)c(Cl)c1CCc1nccn1Cc1ccc(Cl)s1	930 nM	34700 nM
COC(=O)c1c(O)cc(O)c(Cl)c1CCc1nccn1Cc1ccc(C#N)cc1	4700 nM	18200 nM
COC(=O)c1c(O)cc(O)c(Cl)c1CCc1nccn1Cc1cccs1	470 nM	3920 nM
CCOc1ccccc1Cn1ccnc1CCc1c(Cl)c(O)cc(O)c1C(=O)OC	200 nM	8100 nM

The remaining lines, values ahead:

Kd (Endoplasmin)	Kd [1]	Structure (SMILES)
810 nM	–	COC(=O)c1c(O)cc(O)c(Cl)c1CCc1nccn1Cc1ccc(Cl)cc1
1300 nM	53900 nM	COC(=O)c1c(O)cc(O)c(Cl)c1CCc1nccn1Cc1ccccc1OC
680 nM	5130 nM	COC(=O)c1c(O)cc(O)c(Cl)c1CCc1nccn1Cc1ccc(C)s1
4040 nM	–	COC(=O)c1c(O)cc(O)c(Cl)c1CCc1nccn1Cc1cccnc1
1600 nM	–	COC(=O)c1c(O)cc(O)c(Cl)c1CCc1nccn1Cc1ccccc1Br
650 nM	–	COC(=O)c1c(O)cc(O)c(Cl)c1CCc1nccn1Cc1ccc(C)o1
350 nM	9200 nM	COC(=O)c1c(O)cc(O)c(Cl)c1CCc1nccn1Cc1oc(C)cc1C
760 nM	3160 nM	COC(=O)c1c(O)cc(O)c(Cl)c1CCc1nccn1Cc1sccc1Cl
1400 nM	15800 nM	C#Cc1ccc(Cn2ccnc2CCc2c(Cl)c(O)cc(O)c2C(=O)OC)cc1
730 nM	25200 nM	COC(=O)c1c(O)cc(O)c(Cl)c1CCc1nccn1Cc1ccc(C)cc1
1530 nM	19300 nM	COC(=O)c1c(O)cc(O)c(Cl)c1CCc1nccn1Cc1ccccc1C(F)(F)F
250 nM	2300 nM	CCCOc1ccccc1Cn1ccnc1CCc1c(Cl)c(O)cc(O)c1C(=O)OC
